Experimental data: US10301284B2, “Therapeutic inhibitory compounds” (LifeSci Pharmaceuticals, Inc., priority 2016, dated 2019)
Where two headings read alike, the source gives them in different places.

What was measured:
[1] = Pharmacokinetic evaluation, oral exposure in rats; type: in vivo; conditions: male Sprague-Dawley rats, single oral dose 10 mg/kg via oral gavage, plasma
Protocol: Pharmacokinetic studies of select compounds were performed to assess the pharmacokinetic properties. Male Sprague-Dawley rats were administered a single oral dose of the test compound at 10 mg/kg (dose concentration: 2 mg/mL, dose volume: 5 ml/kg) via oral gavage. Blood samples were collected via jugular vein at pre-dose, post-dose 5 min, 15 min, 30 min, 1 h, 2 h, 4 h, 6 h, 8 h, 10 h and 24 h, and centrifuged (8000 rpm for 6 minutes at 2-8° C.). The resulting plasma fractions were analyzed by LC/MS/MS to determine the concentration of the test compound.

human Plasma Kallikrein [2] = target: T1, human Plasma Kallikrein (Homo sapiens (Human), UniProt P03952); assay: Human whole blood kallikrein inhibition (ellagic acid-activated human plasma, Z-FR-2-AMC substrate); type: biochemical; conditions: human plasma activated with ellagic acid, Z-FR-2-AMC 40 μM, 37° C.; read-out: HWB EC50
Protocol: The ability of the compounds disclosed herein to inhibit human plasma kallikrein activity was quantified according to the procedures below.
All dilutions were prepared in an assay buffer comprising 50 mM Tris-HCl pH 7.2, 150 mM NaCl, and 0.01% Triton X-100.
Human plasma was thawed on ice and centrifuged for 15 min at 4° C. to remove platelets. A 1 mM stock solution of ellagic acid was diluted to 8 μM and mixed with human plasma, after removing platelets, at a ratio of 1:0.8. The mixture of human plasma and ellagic acid was further diluted 32-fold in the assay buffer, to yield the final mixture for use in the inhibition assay.
A 22.5 μL volume of the final mixture of human plasma and ellagic acid was added to a 96-well microwell plate and the plate was incubated for 15 min at 37° C.
The test compound solution was prepared to provide final concentrations of 20 μM, 5 μM, 1.25 μM, 312.5 nM, 78.125 nM, 19.531 nM, 4.883 nM, 1.221 nM, 0.305 nM, and 0.076 nM. Each test compound concentration was tested in duplicates.
In addition to the inhibitor control and test wells, the 96 well assay plate included positive control wells which contain the mixture of human plasma and ellagic acid without test compounds, and background wells which contain neither the mixture of human plasma and ellagic acid nor the test compounds. The total volume of liquid in positive control and background wells was brought up to 35 μL using the assay buffer.
The assay plate containing test compounds mixed with human plasma and ellagic acid and appropriate controls was incubated at 37° C. for 5 min. A 10 mM stock solution of substrate Z-FR-2-AMC was diluted to 133.2 μM in the assay buffer, and 15 μL of the diluted substrate was added to each well, to yield a final substrate concentration of 40 μM in each well. The reagents were mixed by shaking the plate gently for 30 sec.
The enzyme reaction was quantified by immediate kinetic reading of the assay plate using excitation/emission wavelengths of 330 nm/440 nm respectively. Fluorescence intensity was recorded for 60 min, using a time interval of 43 sec.
The inhibition activity of the test compounds were evaluated using the IC50 values, calculated according to the dose-response curve of the test compounds, fitted using the “log(inhibitor)−response(variable slope)” equation in GraphPadPrism software (GraphPad Software, Inc.).
The percentage inhibition (EC50) was calculated using the following equation:
[formula] where, Mean(BG) is the average value of the fluorescence intensity of the background wells and Mean(PC) is the average value of the fluorescence intensity of the positive control wells.

human Plasma Kallikrein [3] = target: T1, human Plasma Kallikrein; assay: In vitro enzyme inhibition of human plasma kallikrein (Pro-Phe-Arg-AMC cleavage); type: biochemical
Method in brief: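 Human plasma kallikrein preincubated 5 min at 37 °C with compound in 50 mM Tris-HCl pH 7.5, 150 mM NaCl, 0.01% Triton X-100. Reaction started with Pro-Phe-Arg-AMC, fluorescence read every 43 s for 1 h at 37 °C. IC50 from highest mean velocity over 20 reads (~15 min).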

[4] = human plasma kallikrein, PFR-AMC substrate, 37° C., read-out: hPK IC50

T1 sequence (P03952 391-638 limits assumed): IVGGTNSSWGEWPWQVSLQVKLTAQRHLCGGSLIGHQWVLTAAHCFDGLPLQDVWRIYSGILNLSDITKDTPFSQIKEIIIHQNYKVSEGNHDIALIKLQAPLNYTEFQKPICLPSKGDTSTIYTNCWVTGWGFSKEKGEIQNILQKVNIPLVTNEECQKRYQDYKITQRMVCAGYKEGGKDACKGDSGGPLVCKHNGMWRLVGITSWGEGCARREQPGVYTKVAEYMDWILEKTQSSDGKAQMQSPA
T1 sequence (P03952 20-390 partner limits assumed): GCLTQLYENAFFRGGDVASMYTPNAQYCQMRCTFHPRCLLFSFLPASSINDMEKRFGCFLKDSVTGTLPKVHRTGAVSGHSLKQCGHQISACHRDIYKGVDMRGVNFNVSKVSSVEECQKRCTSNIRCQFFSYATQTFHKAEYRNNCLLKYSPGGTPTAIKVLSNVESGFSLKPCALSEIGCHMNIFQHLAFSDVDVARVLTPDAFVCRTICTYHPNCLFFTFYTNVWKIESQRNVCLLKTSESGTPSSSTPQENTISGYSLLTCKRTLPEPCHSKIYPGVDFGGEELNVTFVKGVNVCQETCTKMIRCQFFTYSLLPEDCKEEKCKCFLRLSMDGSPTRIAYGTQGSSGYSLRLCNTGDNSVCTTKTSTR

Molecule	AUC [1]	EC50 (human Plasma Kallikrein [2])	IC50 (human Plasma Kallikrein [3]; [4])	AUC ([1]; rat, read-out: AUC)	IC50 (human Plasma Kallikrein [3])
2-amino-N-((6-amino-2,4-dimethylpyridin-3-yl)methyl)-1-((3-chloroquinolin-6-yl)methyl)-1H-imidazole-4-carboxamide [Example 24]	B (>100 ng · h/mL to ≤1000 ng · h/mL)	< 100 nM	< 100 nM	–	–
4-amino-N-((6-amino-2,4-dimethylpyridin-3-yl)methyl)-1-((3-chloroquinolin-6-yl)methyl)-1H-pyrazole-3-carboxamide [Example 25]	C (>1000 ng · h/mL to ≤10,000 ng · h/mL)	< 100 nM	< 100 nM	–	–
Cc1cc(N)nc(C)c1CNC(=O)c1ccn(Cc2ccc3ncc(Cl)cc3c2)n1 [Example 1, N-((6-amino-2,4-dimethylpyridin-3-yl)methyl)-1-((3-chloroquinolin-6-yl)methyl)-1H-pyrazole-3-carboxamide]	–	< 100 nM	–	100 to 1000 ng·h/mL	–
Cc1cc(N)nc(C)c1CNC(=O)c1cnn(Cc2ccc3ncc(Cl)cc3c2)c1 [Example 2, N-((6-amino-2,4-dimethylpyridin-3-yl)methyl)-1-((3-chloroquinolin-6-yl)methyl)-1H-pyrazole-4-carboxamide]	–	< 100 nM	< 100 nM	100 to 1000 ng·h/mL	–
Cc1cc(N)nc(C)c1CNC(=O)c1cn(Cc2ccc3ncc(Cl)cc3c2)cn1 [Example 3, N-((6-amino-2,4-dimethylpyridin-3-yl)methyl)-1-((3-chloroquinolin-6-yl)methyl)-1H-imidazole-4-carboxamide]	–	< 100 nM	< 100 nM	100 to 1000 ng·h/mL	–
Cc1cc(N)nc(C)c1CNC(=O)c1ncn(Cc2ccc3ncc(Cl)cc3c2)n1 [Example 4, N-((6-amino-2,4-dimethylpyridin-3-yl)methyl)-1-((3-chloroquinolin-6-yl)methyl)-1H-1,2,4-triazole-3-carboxamide]	–	< 100 nM	< 100 nM	< 100 ng·h/mL	–
Cc1cc(N)nc(C)c1CNC(=O)c1cnc(Cc2ccc3ncc(Cl)cc3c2)[nH]1 [Example 5, N-((6-amino-2,4-dimethylpyridin-3-yl)methyl)-2-((3-chloroquinolin-6-yl)methyl)-1H-imidazole-5-carboxamide]	BLQ	< 100 nM	< 100 nM	–	–
Cc1cc(N)nc(C)c1CNC(=O)c1nc(Cc2ccc3ncc(Cl)cc3c2)no1 [Example 6, N-((6-amino-2,4-dimethylpyridin-3-yl)methyl)-3-((3-chloroquinolin-6-yl)methyl)-1,2,4-oxadiazole-5-carboxamide]	–	< 100 nM	< 100 nM	100 to 1000 ng·h/mL	–
Cc1cc(N)nc(C)c1CNC(=O)c1noc(Cc2ccc3ncc(Cl)cc3c2)n1 [Example 7, N-((6-amino-2,4-dimethylpyridin-3-yl)methyl)-5-((3-chloroquinolin-6-yl)methyl)-1,2,4-oxadiazole-3-carboxamide]	–	< 100 nM	< 100 nM	1000 to 10000 ng·h/mL	–
Cc1cc(N)nc(C)c1CNC(=O)c1nc(Cc2ccc3ncc(Cl)cc3c2)n2ccccc12 [Example 9, N-((6-amino-2,4-dimethylpyridin-3-yl)methyl)-3-((3-chloroquinolin-6-yl)methyl)imidazo[1,5-a]pyridine-1-carboxamide]	–	< 100 nM	< 100 nM	100 to 1000 ng·h/mL	–
Cc1cc(N)nc(C)c1CNC(=O)c1cnc(Cc2ccc3ncc(Cl)cc3c2)o1 [Example 114, N-((6-amino-2,4-dimethylpyridin-3-yl)methyl)-2-((3-chloroquinolin-6-yl)methyl)oxazole-5-carboxamide]	–	< 100 nM	–	1000 to 10000 ng·h/mL	–
Cc1nc(N)ccc1CNC(=O)c1cn(Cc2ccc3ncc(Cl)cc3c2)c2ccc(=O)[nH]c12 [Example 125, N-((6-amino-2-methylpyridin-3-yl)methyl)-1-((3-chloroquinolin-6-yl)methyl)-5-oxo-4,5-dihydro-1H-pyrrolo[3,2-b]pyridine-3-carboxamide]	–	< 100 nM	< 100 nM	–	–
Cc1cc(N)nc(C)c1CNC(=O)c1cn(Cc2ccc3ncc(Cl)cc3c2)c2ccc(=O)[nH]c12 [Example 126, N-((6-amino-2,4-dimethylpyridin-3-yl)methyl)-1-((3-chloroquinolin-6-yl)methyl)-5-oxo-4,5-dihydro-1H-pyrrolo[3,2-b]pyridine-3-carboxamide]	–	< 100 nM	< 100 nM	–	–
COc1ncnc2c1c(C(=O)NCc1c(C)cc(N)nc1C)cn2Cc1ccc2ncc(Cl)cc2c1 [Example 131, N-((6-amino-2,4-dimethylpyridin-3-yl)methyl)-7-((3-chloroquinolin-6-yl)methyl)-4-methoxy-7H-pyrrolo[2,3-d]pyrimidine-5-carboxamide]	–	–	–	–	100 to 1000 nM
Cc1cc(N)nc(C)c1CNC(=O)c1cn(Cc2ccc3ncc(Cl)cc3c2)c2nc[nH]c(=O)c12 [Example 132, N-((6-amino-2,4-dimethylpyridin-3-yl)methyl)-7-((3-chloroquinolin-6-yl)methyl)-4-oxo-4,7-dihydro-3H-pyrrolo[2,3-d]pyrimidine-5-carboxamide]	–	–	> 10000 nM	–	–
Cc1cc(N)nc(C)c1CNC(=O)c1cn(Cc2ccc3ncc(Cl)cc3c2)c2ccnc(C#N)c12 [Example 133, N-((6-amino-2,4-dimethylpyridin-3-yl)methyl)-1-((3-chloroquinolin-6-yl)methyl)-4-cyano-1H-pyrrolo[3,2-c]pyridine-3-carboxamide]	–	–	< 100 nM	–	–
Cc1cc(N)nc(C)c1CNC(=O)c1cn(Cc2ccc3ncc(Cl)cc3c2)c2ncc(C#N)cc12 [Example 135, N-((6-amino-2,4-dimethylpyridin-3-yl)methyl)-1-((3-chloroquinolin-6-yl)methyl)-5-cyano-1H-pyrrolo[2,3-b]pyridine-3-carboxamide]	–	–	–	–	100 to 1000 nM
Cc1cc(N)nc(C)c1CNC(=O)c1cn(Cc2ccc3ncc(Cl)cc3c2)c2ncnc(C#N)c12 [Example 136, N-((6-amino-2,4-dimethylpyridin-3-yl)methyl)-7-((3-chloroquinolin-6-yl)methyl)-4-cyano-7H-pyrrolo[2,3-d]pyrimidine-5-carboxamide]	–	–	–	–	100 to 1000 nM
COc1ccc2c(n1)c(C(=O)NCc1c(C)cc(N)nc1C)nn2Cc1ccc2ncc(Cl)cc2c1 [Example 137, N-((6-amino-2,4-dimethylpyridin-3-yl)methyl)-1-((3-chloroquinolin-6-yl)methyl)-5-methoxy-1H-pyrazolo[4,3-b]pyridine-3-carboxamide]	–	–	–	–	100 to 1000 nM
Cc1cc(N)nc(C)c1CNC(=O)c1c2c(N)cccc2nn1Cc1ccc2ncc(Cl)cc2c1 [Example 140, 4-amino-N-((6-amino-2,4-dimethylpyridin-3-yl)methyl)-2-((3-chloroquinolin-6-yl)methyl)-2H-indazole-3-carboxamide]	–	–	> 10000 nM	–	–
Cc1cc(N)nc(C)c1CNC(=O)c1c(C(F)(F)F)nnn1Cc1ccc2ncc(Cl)cc2c1 [Example 141, N-((6-amino-2,4-dimethylpyridin-3-yl)methyl)-1-((3-chloroquinolin-6-yl)methyl)-4-(trifluoromethyl)-1H-1,2,3-triazole-5-carboxamide]	–	–	> 10000 nM	–	–
CCOC(=O)c1nc(C(=O)NCc2c(C)cc(N)nc2C)nn1Cc1ccc2ncc(Cl)cc2c1 [Example 142, ethyl 3-(((6-amino-2,4-dimethylpyridin-3-yl)methyl)carbamoyl)-1-((3-chloroquinolin-6-yl)methyl)-1H-1,2,4-triazole-5-carboxylate]	–	–	> 10000 nM	–	–
N-((6-amino-2,4-dimethylpyridin-3-yl)methyl)-1-((3-chloroquinolin-6-yl)methyl)-3-cyano-1H-1,2,4-triazole-5-carboxamide [Example 107]	–	–	100 to 1000 nM	–	–
